Assay results as given in paper PMC5794198, “Inhibitors of Trypanosoma cruzi Sir2 related protein 1 as potential drugs against Chagas disease” (PLoS Neglected Tropical Diseases, 2018).

Experiments:
[1] = tested on: Plasmodium falciparum Sir2A; parameters: method as in PMID 19937668, PMID 18221799; settings: previously described; ref [46], [72]; cited from earlier work
[2] = target: T1, human SIRT1 (Homo sapiens, UniProt Q96EB6); test: hSIRT1 deacetylase inhibition (CycLex kit); assay type: biochemical; settings: 200 μM
T1 sequence (Q96EB6 1-747): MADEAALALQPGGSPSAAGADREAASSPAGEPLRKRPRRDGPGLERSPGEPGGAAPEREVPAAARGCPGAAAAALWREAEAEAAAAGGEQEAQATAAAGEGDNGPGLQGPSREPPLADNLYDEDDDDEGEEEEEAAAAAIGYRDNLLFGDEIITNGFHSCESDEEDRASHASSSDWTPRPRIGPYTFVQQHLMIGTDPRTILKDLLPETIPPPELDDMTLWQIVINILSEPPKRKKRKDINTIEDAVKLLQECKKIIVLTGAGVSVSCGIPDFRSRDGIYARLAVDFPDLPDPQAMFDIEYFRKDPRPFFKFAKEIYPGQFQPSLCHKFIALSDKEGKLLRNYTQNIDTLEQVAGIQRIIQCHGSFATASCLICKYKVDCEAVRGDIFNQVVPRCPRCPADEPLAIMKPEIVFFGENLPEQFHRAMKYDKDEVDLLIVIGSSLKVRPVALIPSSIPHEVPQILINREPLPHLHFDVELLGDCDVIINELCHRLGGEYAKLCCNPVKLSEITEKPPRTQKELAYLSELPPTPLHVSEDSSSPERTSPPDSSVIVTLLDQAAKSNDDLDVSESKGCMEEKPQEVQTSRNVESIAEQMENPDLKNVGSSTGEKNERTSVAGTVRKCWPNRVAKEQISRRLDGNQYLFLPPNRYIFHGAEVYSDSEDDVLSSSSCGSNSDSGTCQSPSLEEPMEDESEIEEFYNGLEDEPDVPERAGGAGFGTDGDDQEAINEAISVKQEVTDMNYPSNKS

[3] = tested on: T. cruzi amastigotes; test: High-content screening assay on intracellular T. cruzi amastigotes; assay type: cell-based, Trypanosoma cruzi; settings: up to a concentration of 2000 μM (2 mM)
Protocol: For the evaluation of the activity against T. cruzi amastigotes, high-content screening (HCS) was designed. In summary, 100 μL of host C2C12 cells (ATCC) were seeded in clear bottom black 96-well plates at a density of 2.5 x 10^4 cells/mL (2.5 × 10^3 cells/well). After 24 hrs, 50 μL of Y strain tissue culture-derived trypomastigotes were used to infect the host cells at a density of 7.5 x 10^5/mL (3.75 x 10^4 parasites/well). The parasites were allowed to infect for a 24 hr period, after which compounds were added in a volume of 50 μL. […] After 72 hrs of compound incubation, the wells were fixed with 4% paraformaldehyde for 15 to 30 mins. The plates were then washed once with deionized water and stained with a solution of DAPI (3 μM) for 1 hour. Plates were imaged in an INCell 2000 (GE Healthcare) high-content analyser by taking 16 pictures per well at 20 X objective amplification. Images were analysed with INCell Developer software (GE Healthcare) using the segmentation of host cell nuclei and parasite kinetoplast DNA. The measurement output used was the average number of parasites per cell calculated by the ratio of host cell nuclei/parasite kinetoplast DNA.
In this assay, the compounds are incubated for 72 hours with cells previously infected with wild-type trypomastigotes for 24 hours. The readout was done by comparing the average number of amastigotes per cell that developed by the end of the incubation period. The quality of the assay was statistically evaluated by the calculation of the z-factor [75], that represents the reliability of the assay in distinguishing positive controls confidently from negative controls. Varying from 0 to 1, z-factor values higher than 0.5 are considered acceptable for drug screening. The z-factor obtained was 0.68, validating the use of the assay (S3B Fig).

[4] = target: T2, LiSir2rp1 (Leishmania infantum, UniProt A0A6L0XH39); test: LiSir2rp1 deacetylase inhibition; assay type: biochemical
T2 construct: made in house
Protocol: (§1) T. brucei Sir2rp1 (accession number: AAX70528.1) tagged with a C-terminal hexahistidine was expressed and characterized essentiality as described previously L. infantum Sir2rp1 was expressed and purified as previously described.
(§2) The deacetylase activity was measured using the commercial SIRT1/Sir2 Deacetylase Fluorometric Assay Kit (CycLex,Japan) according to the manufacturer’s recommendations. Briefly, fluorescence emission after digestion of deacetylated substrates by a lysine specific endopeptidase was measured in a fluorometric plate reader (Synergy HT, BioTek) with excitation and emission wavelengths set at 340 and 440 nm, respectively, every 30 seconds for 1 hour. The slope of the linear part of the reaction was calculated and used as readout of enzyme activity.

[5] = target: TcSir2rp1 (Trypanosoma cruzi, UniProt Q4DVL9); test: TcSir2rp1 NAD+-dependent deacetylase fluorimetric assay (CycLex kit); assay type: biochemical
Protocol: as §2, with “activity. […]” for “activity.”
(§3) A variety of the bisnaphthalimidopropyl (BNIPs) derivatives, as well as the newly synthetized derivatives were evaluated as potential TcSir2rp1 inhibitors. The enzymatic reactions were performed using a commercially available CycLex SIRT1/Sir2 deacetylase fluorimetric kit (CycLex Co. Ltd., Nagano, Japan) in the absence and presence of the various inhibitors, 200 μM NAD^+ and 10 μM of peptide substrate as previously described.
as §3, with “µM” for “μM”

[6] = target: T3, TbSir2rp1 (Trypanosoma brucei brucei, UniProt Q57V41); test: TbSir2rp1 deacetylase inhibition; assay type: biochemical
T3 construct: hexahistidine (C); made in house
Protocol: as §1, §2

Chain of TcSir2rp1 (Q4DVL9 entry or part of it): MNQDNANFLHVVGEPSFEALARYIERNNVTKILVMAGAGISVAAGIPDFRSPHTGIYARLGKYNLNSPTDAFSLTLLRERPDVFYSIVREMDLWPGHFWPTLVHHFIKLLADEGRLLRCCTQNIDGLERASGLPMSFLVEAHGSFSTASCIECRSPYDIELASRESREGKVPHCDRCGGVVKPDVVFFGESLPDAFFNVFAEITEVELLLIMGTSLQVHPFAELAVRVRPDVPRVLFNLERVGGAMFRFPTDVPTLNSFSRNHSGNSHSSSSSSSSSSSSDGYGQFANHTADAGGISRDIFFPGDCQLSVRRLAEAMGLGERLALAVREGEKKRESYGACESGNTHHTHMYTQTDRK
T3 sequence (Q57V41 whole entry): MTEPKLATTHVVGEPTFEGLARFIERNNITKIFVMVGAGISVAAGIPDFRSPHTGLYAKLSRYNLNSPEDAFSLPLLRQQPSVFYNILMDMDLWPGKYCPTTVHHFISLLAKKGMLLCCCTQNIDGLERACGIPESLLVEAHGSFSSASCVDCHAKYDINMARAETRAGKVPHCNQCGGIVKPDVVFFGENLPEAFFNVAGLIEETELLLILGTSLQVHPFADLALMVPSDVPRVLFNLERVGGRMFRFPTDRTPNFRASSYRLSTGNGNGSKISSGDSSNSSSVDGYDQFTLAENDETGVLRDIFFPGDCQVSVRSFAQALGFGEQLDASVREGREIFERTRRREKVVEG
T2 sequence (A0A6L0XH39 entry or part of it): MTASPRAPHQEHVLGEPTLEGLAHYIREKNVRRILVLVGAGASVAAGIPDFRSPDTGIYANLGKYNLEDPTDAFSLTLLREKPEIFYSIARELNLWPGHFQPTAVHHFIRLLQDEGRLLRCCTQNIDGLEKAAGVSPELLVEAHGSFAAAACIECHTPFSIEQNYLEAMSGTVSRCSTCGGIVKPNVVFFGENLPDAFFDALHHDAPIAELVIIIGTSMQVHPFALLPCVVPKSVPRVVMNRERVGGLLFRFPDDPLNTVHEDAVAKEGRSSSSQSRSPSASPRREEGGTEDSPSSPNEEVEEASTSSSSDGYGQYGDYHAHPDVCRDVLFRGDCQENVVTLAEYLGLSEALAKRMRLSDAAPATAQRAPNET

Which results are given for `NC(=O)c1cccnc1` [Nicotinamide, nicotinamide, reference compound]?
IC50 [1]: 51.2 ± 3 µM; inhibition at 200 µM [2]: 66 ± 10%; Activity in the amastigote assay [3]: no amastigote anti-parasitic activity was detected; inhibition at 200 µM [4]: 82%; IC50 ([5]; 10 μM Ac-peptide and 200 μM NAD+, read-out: IC50 of TcSir2rp1 inhibition): 456 ± 44 µM; inhibition at 200 µM ([5]; 200 μM): 34 ± 1%; inhibition at 200 µM [6]: 70 ± 5%
